Test results published in ChEMBL document CHEMBL4834491, “Novel Compounds for Treating Malaria” (ACS Med Chem Lett, 2021).

The compounds below were run on Plasmodium falciparum (assay: Antimalarial activity against Plasmodium falciparum assessed as reduction in parasite growth after 72 hrs by LDH assay).
Assay type: functional, organism-based

**Q.** Which EC50 does the source give for `CCC1(CC)CC(=O)N([C@H](c2cccnc2)[C@@H]2C(C)[C@H]2C(=O)N[C@H]2CC(C)(C)Oc3ccccc32)C(=N)N1` (stereo partly specified) here?
**A.** 700 pM

**Q.** Which EC50 does the source give for `CC[C@]1(C)CC(=O)N([C@H](c2cncc(F)c2)[C@@H]2C[C@H]2C(=O)N[C@H]2C[C@H](C(F)(F)F)Oc3ccccc32)C(=N)N1` here?
**A.** 300 pM

**Q.** With `CC[C@@]1(C)CC(=O)N([C@H](c2cncc(F)c2)[C@@H]2C[C@H]2C(=O)N[C@H]2CC(C)(C)Oc3ccccc32)C(=N)N1` as the compound, how does the EC50 read?
**A.** 600 pM

**Q.** Which EC50 does the source give for `CC[C@]1(C)CC(=O)N([C@H](c2cncc(F)c2)[C@@H]2C[C@H]2C(=O)N[C@H]2CC(C)(C)Oc3ccc(F)cc32)C(=N)N1` here?
**A.** 300 pM

**Q.** For `CCC1(CC)CC(=O)N([C@H](CCCC(C)OC)[C@@H]2C[C@H]2C(=O)N[C@H]2CC(C)(C)Oc3ccccc32)C(=N)N1` (stereo partly specified), which EC50 is on record?
**A.** 700 pM

**Q.** `CC1(C)CC(=O)N([C@H](c2cncc(Cl)c2)[C@@H]2C[C@H]2C(=O)N[C@H]2C[C@H](C(F)(F)F)Oc3ccccc32)C(=N)N1` was tested. Which EC50 did it give?
**A.** 500 pM
